US20170312200A1, “AN AGENT FOR IMPROVING MITOCHONDRIAL FUNCTION” (SHOWA DENKO K.K., priority 2014, published 2017)

How the values were obtained:
Format in all cases: cell-based
[1] = system: human skin fibroblasts NB1-RGB cells; test: Effect on promoting elastin production (Elastin Assay Kit); conditions: aged cells, 48 hours, normal cell = 1.00
Procedure: It is known that elastin is a fiber-like protein, which has a main function of crosslinking collagen, is present in the dermis of the skin, blood vessels, ligaments, and the like, and provides elasticity to the skin. The effect of a hydroxycitric acid derivative on elastin production was examined by the following method. The aged cells and normal, unprocessed cells which were produced in Example 1 were prepared at a seeding density of 4,000 cells/cm^2 and cultured for 24 hours in the DMEM medium containing 10% fetal bovine serum. The hydroxycitric acid derivatives according to the present invention which were dissolved in 50% ethanol to the final concentration of 0 μM (for a control), 0.01 μM, and 0.1 μM were added to the DMEM medium containing 10% fetal bovine serum, and culturing was performed for 48 hours. After that, cells were collected, elastin was extracted using Elastin Assay Kit manufactured by Biocolor Ltd., and an absorbance of the extracted solution was measured at a wavelength of 513 nm.

[2] = system: human skin fibroblasts NB1-RGB cells; test: Measurement of cells in which apoptosis had been caused (JC-1 green fluorescence, mitochondrial membrane potential as index); conditions: aged cells (600 μM hydrogen peroxide), specimen 10 μM, 48 hours; relative value with normal cells as 1
Procedure: The effect on mitochondrial function improvement in human skin fibroblasts NB1-RGB cells was measured under the following conditions using a mitochondrial membrane potential as an index. By performing an operation for 4 days in which confluent NB1-RGB cells were cultured for one hour in a DMEM medium containing 10% fetal bovine serum and 600 μM hydrogen peroxide solution, cells induced of artificial aging by oxidation were prepared as aged cells. These aged cells and normal, unprocessed cells were prepared at a seeding density of 4,000 cells/cm^2 and cultured for 24 hours in the DMEM medium containing 10% fetal bovine serum. […] After changing a medium to new assay solution supplied in Assay Kit, a fluorescence intensity of the living cells was measured at an excitation wavelength of 520 to 570 nm and a fluorescence wavelength of 570 to 610 nm, and the dead cells at an excitation wavelength of 485 nm and a fluorescence wavelength of 535 nm. In order to obtain a ratio of dead cells in which apoptosis had been caused, only the green fluorescence intensity of a cell group to be measured was measured, and relative values, with a measured value of the normal cells as 1, are shown in Table 2.

[3] = system: human skin fibroblasts NB1-RGB cells; test: Effect on mitochondrial function improvement (JC-1 red/green fluorescence, mitochondrial membrane potential); conditions: aged cells (600 μM hydrogen peroxide), specimen 10 μM, 48 hours; relative value with normal cells as 1
Procedure: The effect on mitochondrial function improvement in human skin fibroblasts NB1-RGB cells was measured under the following conditions using a mitochondrial membrane potential as an index. By performing an operation for 4 days in which confluent NB1-RGB cells were cultured for one hour in a DMEM medium containing 10% fetal bovine serum and 600 μM hydrogen peroxide solution, cells induced of artificial aging by oxidation were prepared as aged cells. These aged cells and normal, unprocessed cells were prepared at a seeding density of 4,000 cells/cm^2 and cultured for 24 hours in the DMEM medium containing 10% fetal bovine serum. […] After changing a medium to new assay solution supplied in Assay Kit, a fluorescence intensity of the living cells was measured at an excitation wavelength of 520 to 570 nm and a fluorescence wavelength of 570 to 610 nm, and the dead cells at an excitation wavelength of 485 nm and a fluorescence wavelength of 535 nm. In order to evaluate the state of mitochondrial membrane potential, red fluorescence intensity and green fluorescence intensity of a cell group to be measured were measured, and values of red fluorescence intensity divided by green fluorescence intensity were calculated, and their relative values, with a measured value of the normal cells as 1, are shown in Table 3. […]

Molecule | Relative absorbance (513 nm) (elastin production) ([1]; specimen 0.01 μM) | Relative absorbance (513 nm) (elastin production) ([1]; specimen 0.1 μM) | Relative fluorescence intensity (green fluorescence of dead cells in which apoptosis had been caused) [2] | Relative fluorescence intensity (red fluorescence intensity divided by green fluorescence intensity; effect on mitochondrial function improvement) [3]
CCCCCCCCCCCCCC(=O)OC(CC(=O)O)(C(=O)O)C(O)C(=O)O (centres unmarked) [Hydroxycitric acid-2-myristate] | 0.93 | 0.94 | 1.13 | 0.66
Hydroxycitric acid-2-palmitate | 1.11 | 1.06 | 1.04 | 0.72
